This note sets out measurements from patent US5578622A, “Isothiazole derivatives and their uses” (Asamura Patent Office, priority 1994, dated 1996).

What all share (format): cell-based
Experiment [1] concerns Trichoderma viride. Nature of the experiment: Test for wood rotting-preventing effect (mycelium growth inhibition on malt extract agar). As to conditions: 28° C.±2° C., 2 to 10 days, read-out: Rotting preventing effect (mycelium growth-inhibitory rate), TRV. The procedure:
(§1) The following fungi were cultured in agar media, respectively, and mycelial disks on the media were stamped out together with the agar using a cork borer of 4 mm in diameter. The resulting mycelial disks on agar were used as an inoculum. Each test compound of 50 ppm was added to a malt extract agar medium and added in parts to Petri dishes. The above prepared inoculum was put on the Petri dishes and cultured at 28° C.±2° C. Two to ten days after inoculation, the diameter of the mycelial disk of each fungus was measured, and the mycelium growth-inhibitory rate was obtained according to the following equation. [formula] The mycelium growth-inhibitory rate (%) is indicated by the following symbols as a fungicidal effect on each fungus, and the results are shown in Table 2. | TRV: Trichoderma viride

In experiment [2] the test system is Trichophyton mentagrophytes IFO 5810. The experiment can be described thus: In vitro antimicrobial activity on Trichophyton mentagrophytes. The arrangement: key: A: Fungus is not observed at all with the naked eye.; B: Presence of fungus is slightly observed on shaking the test tube.; C: Fungus of about less than one-fourth that of the DMSO control group is observed with the naked eye.; Fungus of about less than half that of the DMSO control group is observed with the naked eye. To be noted: 10 (ppm); SGB, 27° C., 7 days. The procedure:
3-3 In vitro antimicrobial activity on Trichophyton mentagrophytes To Trichophyton mentagrophytes IFO 5810 precultured at 27° C. for 2 to 3 weeks on a Sabouraud's glucose agar (SGA) slant medium was added a sterilized physiological salt solution containing 0.1% (W/V) Tween 80. After conidia were made free from the solution, the solution was filtered through a sterilized two-sheet gauze to remove the mycelium mass. The number of the conidia in the resulting suspension was counted with a globulimeter and adjusted so as to be 1×10^6 conidia/ml with a sterilized physiological salt solution containing 0.1%(W/V) Tween 80. This solution was used as an inoculum solution. Thereafter, 0.1 ml of this solution and 0.1 ml of the dimethyl sulfoxide (DMSO) solution of the test compound were added to 9.8 ml of Sabouraud's glucose broth (SGB), and shake-cultured at 27° C. for 7 days.

Experiment [3] relates to Aspergillus niger. The experiment can be described thus: Test for wood rotting-preventing effect (mycelium growth inhibition on malt extract agar). As to conditions: 28° C.±2° C., 2 to 10 days, read-out: Rotting preventing effect (mycelium growth-inhibitory rate), ASN. How it is done: as §1, with “ASN: Aspergillus niger” for “TRV: Trichoderma viride”
The test system of experiment [4] is Candida albicans IFO 1270. Nature of the experiment: In vitro antimycotic activity on Candida albicans. As to conditions: IFO1270, 10 (ppm), SGB, 37° C., 48 hours, turbidity at 650 nm, read-out: Antimycotic activity (growth inhibitory rate), C.albicans. The procedure:
3-1 In vitro antimycotic activity on Candida albicans
Candida albicans IFO 1270 pre-cultured on a Sabouraud's glucose agar (SGA) plate medium at 37° C. […] was suspended in a sterilized physiological salt solution. The number of fungi in the resulting suspension was counted with a globulimeter, and adjusted so as to be 1×10^7 cell/ml with a sterilized physiological salt solution. This solution was used as an inoculum solution. Thereafter, 0.1 ml of this solution and 0.1 ml of a dimethyl sulfoxide (DMSO) solution of the test compound were added to 9.8 ml of Sabouraud's glucose broth (SGB), and shake-cultured at 37° C. for 48 hours. After culture, the medium turbidity was measured at 650 nm, and the growth-inhibitory rate of the fungus was calculated according to the following equation.
Growth inhibitory rate (%)=(1-W/Y)×100
Y: Medium turbidity of DMSO control group
W: Medium turbidity of test compound group
From this inhibitory rate, the antimycotic activity was shown by the symbols A to D. The test results of the test compounds are shown in Table 4.

Experiment [5] concerns Tyromyces palustris. Nature of the experiment: Test for wood rotting-preventing effect (mycelium growth inhibition on malt extract agar). As to conditions: 28° C.±2° C., 2 to 10 days, read-out: Rotting preventing effect (mycelium growth-inhibitory rate), TYP. The procedure:
as §1, with “TYP: Tyromyces palustris” for “TRV: Trichoderma viride”

Experiment [6] concerns Aspergillus fumigatus TIMM 0063. Nature of the experiment: In vitro antimycotic activity on Aspergillus fumigatus. As to conditions: TIMM0063, 10 (ppm), Casitone agar, 37° C., 48 hours, read-out: Antimycotic activity (growth inhibitory rate), A.fumigatus. The procedure:
3-2 In vitro antimycotic activity on Aspergillus fumigatus.
To Aspergillus fumigatus TIMM 0063 precultured at 37° C. for 48 hours on a potato dextrose agar (PDA) slant medium was added a sterilized physiological salt solution containing 0.1%(W/V) Tween 80. After conidia were made free from the solution, the solution was filtered through a sterilized two-sheet gauze to remove the mycelium mass. The number of the conidia in the resulting suspension was counted with a globulimeter and adjusted so as to be 1×10^5 conidia/ml with a sterilized physiological salt solution containing 0.1%(W/V) Tween 80. This solution was used as an inoculum solution. Casitone agar plate medium containing the DMSO solution of the test compound in a rate of 1% (V/V) was inoculated with the inoculum solution at four places thereof with a microplanter, and cultured with the medium allowed to stand at 37° C. for 48 hours. After culture, the diameter of the mycelium disks cultivated at the four inoculated parts was measured, and its mean value was obtained. The growth inhibitory rate was calculated according to the following equation, and the antimycotic activity was shown in the same manner as in Test Example 3-1.
Growth inhibitory rate (%)=(1-W'/Y')×100
Y': Diameter of mycelium disk of DMSO control group
W': Diameter of mycelium disk of test compound group

Experiment [7] relates to Rhizopus nigricans. The experiment can be described thus: Test for wood rotting-preventing effect (mycelium growth inhibition on malt extract agar). To be noted: Rhizopus stolonifer, 28° C.±2° C., 2 to 10 days, read-out: Rotting preventing effect (mycelium growth-inhibitory rate), RHN. How it is done: as §1, with “RHN: Rhizopus nigricans” for “TRV: Trichoderma viride”

`CC(C#CI)OCOc1nsc(SC(F)F)c1C#N` (stereo not drawn) [Compound 111]: the inhibition at 50 ppm in experiment [1], in experiment [3], in experiment [5] and in experiment [7] was 95 to 100% in each case. The “Antimycotic activity (degree of growth, naked eye), T.mentagrophytes” value (“Antimycotic activity” for short) in experiment [2] is “A”. In addition, the inhibition of growth at 10 µg/mL in experiment [4] and in experiment [6] was 100% throughout.
As for `CCOCCSc1snc(OCC#CI)c1C#N` [Compound 16], the inhibition at 50 ppm in experiment [1] was in the range of 95 to 100%; in experiment [3] it was 80 to 94%; in experiment [5], 95 to 100%; in experiment [7] it was 80 to 94%. In experiment [2], the “Antimycotic activity” value was “A”. For the same molecule, the inhibition of growth at 10 µg/mL in experiment [4] and in experiment [6] was 100% in each case.
Regarding `CC(OCC#CI)Oc1nsc(N(C)C)c1C#N` (stereo not drawn) [Compound 123], the “Antimycotic activity” value in experiment [2] is listed as “A”. Besides, the inhibition of growth at 10 µg/mL in experiment [4] and in experiment [6] was 100% each time.
Take `CCSc1snc(OCCC#CI)c1C#N` [Compound 71]: the “Antimycotic activity” value in experiment [2] is given as “A”. The inhibition of growth at 10 µg/mL in experiment [4] and in experiment [6] was 100% throughout.
Regarding `CC(C)COc1snc(OCC#CI)c1C#N` [Compound 29], the “Antimycotic activity” value in experiment [2] is given as “A”. Also, the inhibition of growth at 10 µg/mL in experiment [4] and in experiment [6] was 100% in each case.
On to `CCOc1snc(OCC#CI)c1C#N` [Compound 22], for which the inhibition at 50 ppm in experiment [1], in experiment [3], in experiment [5] and in experiment [7] was 95 to 100% each time. For the same molecule, the “Antimycotic activity” value in experiment [2] was “A”. Also, the inhibition of growth at 10 µg/mL in experiment [4] and in experiment [6] was 100% throughout.
Consider `CC(C)Oc1nsc(SCOCC#CI)c1C#N` [Compound 56], for which the “Antimycotic activity” value in experiment [2] is reported as “A”. Also, the inhibition of growth at 10 µg/mL in experiment [4] and in experiment [6] was 100% in each case.
Take `CN1CCN(c2snc(OCC#CI)c2C#N)CC1` [Compound 36]: the inhibition at 50 ppm in experiment [1] was in the range of 95 to 100%; in experiment [3], 80 to 94%; in experiment [5], 95 to 100%; in experiment [7] it was 80 to 94%. In experiment [2], the “Antimycotic activity” value is reported as “A”. Besides, the inhibition of growth at 10 µg/mL in experiment [4] and in experiment [6] was 100% each time.
For `CC(C)Sc1snc(OCOCC#CI)c1C#N` [Compound 88], the “Antimycotic activity” value in experiment [2] is given as “A”. The inhibition of growth at 10 µg/mL in experiment [4] and in experiment [6] was 100% each time.
As for `C=CCOc1nsc(SCOCC#CI)c1C#N` [Compound 57], the inhibition at 50 ppm in experiment [1], in experiment [3], in experiment [5] and in experiment [7] was 95 to 100% each time. In experiment [2], the “Antimycotic activity” value is recorded as “A”. Besides, the inhibition of growth at 10 µg/mL in experiment [4] and in experiment [6] was 100% in each case.
Consider `CC(C)Oc1nsc(OCCC#CI)c1C#N` [Compound 83], for which the “Antimycotic activity” value in experiment [2] was “A”. For the same molecule, the inhibition of growth at 10 µg/mL in experiment [4] and in experiment [6] was 100% throughout.
As to `N#Cc1c(OCOCC#CI)nsc1SCOCC#CI` [Compound 141], the “Antimycotic activity” value in experiment [2] is listed as “A”. Also, the inhibition of growth at 10 µg/mL in experiment [4] and in experiment [6] was 100% throughout.
`N#Cc1c(SC(F)F)nsc1SCOCC#CI` [Compound 138]: the inhibition at 50 ppm in experiment [1], in experiment [3], in experiment [5] and in experiment [7] was 95 to 100% each time. In addition, the “Antimycotic activity” value in experiment [2] is reported as “A”. Moreover, the inhibition of growth at 10 µg/mL in experiment [4] and in experiment [6] was 100% in each case.
Consider `CCSc1snc(OCOC(C)(C)C#CI)c1C#N` [Compound 101], for which, in experiment [2], the “Antimycotic activity” value is given as “A”. Further, the inhibition of growth at 10 µg/mL in experiment [4] and in experiment [6] was 100% throughout.
